Several values for one entry are separate records, joined by “and”; a condition that tells them apart may be missing. Equal entries are not always repeated.

This is an account of results in US20180147183A1, “USE OF R-OXIRACETAM IN PHARMACEUTICAL FIELD” (Chongqing Runze Pharmaceutical Co., Ltd., priority 2015, published 2018).

This data set can be described thus: Pharmacokinetics and bioavailability in dogs, plasma determined by LC-MS. The data set is classed as in vivo, dog. As for the experimental part: A. The Pharmacokinetics of R-Oxiracetam In Vivo and Studies of Bioavailability
4 Determination Methods of Oxiracetam and R-Oxiracetam in Plasma by LC-MS
4.1 Chromatographic Conditions
Mobile phase: methanol: water (5:95)
Column: ZORBAX SB-Aq (2.1×100 mm 3.5μ)
Column temperature: 30° C.;
Injection volume: […] 4.2 Mass Spectrometry Detection Parameters
Mass spectrometry ionization method: electrospray ionization (ESI); ion polarity Positive; scanning mode for multiple reactions monitoring (MRM); scanning time of 100 ms. The ionic reactions used for quantitative analysis were m/z (oxiracetam) m/z 159.0→m/z 113.9 and m/z 143.1→m/z 126.0 (piracetam), respectively.
20 μL of the drug-containing the plasma sample is taken in a 1.5 mL Eppendorf tube. 20 μL of piracetam (20 μg/mL) of the internal standard solution is added, and mixed by the vortex mixer for 30s. Then, 500 μL of acetonitrile is added thereto, vortex shaken for 5 min and centrifugated at 16000 rpm for 10 min. The supernatant from the centrifugation was passed through 1 ml of SPE C 18E column and the filtrate was collected, put into 38° C. constant temperature water bath and dried by nitrogen gas. 300 μL of mobile phase was dissolved and the injection volume was 10 μL.
20 μL of blank dog plasma was added into the working solution prepared from the oxiracetam standard. The concentrations of oxiracetam in the plasma were 0.167, 0.33, 0.37, 1.33, 2.67, 4.0, 6.67, 13.33 and 26.67 μg/mL, respectively. A sample was made for each concentration respectively according to the procedures“4.4 Extraction of plasma samples”. The ratio of the peak area (As) of oxiracetam to the peak area (Ai) of the internal standard piracetam (f=As/Ai) were calculated, and perform linear regression using the concentration (C) to the ratio (f). The weight parameter 1/x, and the oxiracetam regression equation: y=5.2117X−0.76985 (r=0.9970, weight 1/x).
20 μL of blank dog plasma was added into the working solution prepared from the R-oxiracetam standard. The concentrations of R-oxiracetam in the plasma were 0.167, 0.33, 0.37, 1.33, 2.67, 4.0, 6.67, 13.33 and 26.67 μg/mL, respectively. A sample was made for each concentration respectively according to the procedures “4.4 Extraction of plasma samples”. The ratio of the peak area (As) of R-oxiracetam to the peak area (Ai) of the internal standard piracetam (f=As/Ai) were calculated, and perform linear regression using the concentration (C) to the ratio (f). The weight parameter 1/x, and the oxiracetam regression equation: y=1.6811X−0.031244(r=0.9949, weight 1/x).

As to `NC(=O)CN1C[C@H](O)CC1=O` [R-oxiracetam, (R)-4-hydroxy-2-oxo-1-pyrrolidineacetamide], the “Concentration in dog blood C” value (Time 0 h, individual dogs, one table per dog) came to 0 ng/mL; the “Concentration in dog blood C” value (Time 0.5 h, individual dogs, one table per dog) is 30410 ng/mL and 9013 ng/mL and 51070 ng/mL and 7637 ng/mL and 33000 ng/mL and 74670 ng/mL; the “Concentration in dog blood C” value (Time 1 h, individual dogs, one table per dog) is 50870.6 ng/mL and 35550 ng/mL and 70640 ng/mL and 48190 ng/mL and 54750 ng/mL and 112164.2 ng/mL; the “Concentration in dog blood C” value (Time 1.5 h, individual dogs, one table per dog) is 110222.9 ng/mL and 37880 ng/mL and 76280 ng/mL and 74560 ng/mL and 61910 ng/mL and 58530 ng/mL; the “Concentration in dog blood C” value (Time 6 h, individual dogs, one table per dog) is 7637 ng/mL and 14070 ng/mL and 12210 ng/mL and 4648 ng/mL and 10140 ng/mL and 4409 ng/mL; the “Concentration in dog blood C” value (Time 8 h, individual dogs, one table per dog) is 3684 ng/mL and 4731 ng/mL and 9036 ng/mL and 2318 ng/mL and 4967 ng/mL and 2215 ng/mL. Besides, the “Concentration in dog blood C” value by setting is: (Time 12 h, individual dogs, one table per dog) 1610 ng/mL and 1913 ng/mL and 2205 ng/mL and 1461.5 ng/mL and 3568 ng/mL and 1333 ng/mL; (Time 24 h, individual dogs, one table per dog) 0 ng/mL. Also, where the note is “dog, plasma, Time 0 h, individual dogs, one table per dog, read-out: Concentration in dog blood C”, the concentration at 0 h is 0 ng/mL. Moreover, the concentration at 4 h (dog, plasma, Time 4 h, individual dogs, one table per dog, read-out: Concentration in dog blood C) is 18400 ng/mL. Moreover, where the note is “dog, plasma, Time 24 h, individual dogs, one table per dog, read-out: Concentration in dog blood C”, the concentration at 24 h came to 0 ng/mL. This molecule displayed a Cmax (dog, plasma, dogs, mean ± SD) of 85800 ± 20000 ng/mL. Under “dog, plasma, dogs, mean ± SD”, the Tmax came to 2.04 ± 0.401 h. Moreover, the bioavailability (dog, plasma, dogs, with oxiracetam as a reference, read-out: relative bioavailability) was determined as 112 ± 11.6%.

In general, Cmax refers to the highest concentration seen after dosing. In general, Tmax refers to the time from dosing to the highest level.
